| flash point [°C] | SMILES |
| --- | --- |
| 149.00 | CCCCCCCCCCCCCCCCC [heptadecane] |
| -49.00 | CCCCC [pentane] |
| 42.00 | COCCO [2-methoxyethanol] |

| SMILES | flash point [°C] |
| --- | --- |
| COCCOC [1,2-dimethoxyethane] | 0.00 |

Remark: another data set of the same source

| flash point [°C] | SMILES |
| --- | --- |
| 148 | CCCCCCCCCCCCCCCCC [heptadecane] |
| -40 | CCCCC [pentane] |
| 25 | CCC(C)(C)OC(C)=O [tert-pentylacetate] |
| 68 | CCC(=O)OC1CCCCC1 [cyclohexylpropanoate] |
| 89 | CCCCCCCCCC(C)=O [2-undecanone] |
| -3 | CC1C=CCCC1 (stereo not given) [3-methylcyclohexene] |
| 18 | COC(=O)C1CC1 [methylcyclopropanecarboxylate] |
| 71 | CCC1CCCCCC1=O (stereo not given) [2-ethylcycloheptanone] |
| 76 | CC(C)c1cccc(C(C)C)c1 [1,3-diisopropylbenzene] |
| 73 | CSCc1ccccc1 [benzylmethylsulfide] |
| 15 | CCC(C)CC(C)CC (stereo not given) [3,5-dimethylheptane] |
| 1 | C=CC(CC)CCC (stereo not given) [3-ethyl-1-hexene] |
| -29 | CCC(C)OC (stereo not given) [2-methoxybutane] |
| 57 | CN(C)C=O [N,N-dimethylformamide] |
| 45 | CCCC(O)CC (stereo not given) [3-hexanol] |
| -20 | CNC(C)C [N-methylisopropylamine] |
| 56 | O=C1CCCCCC1 [cycloheptanone] |
| 2 | CC(=O)OC(C)C [isopropylacetate] |
| 59 | C[C@@H]1CCCC[C@H]1O (relative stereo) [trans-2-methylcyclohexanol] |
| 96 | CCC(=O)OCc1ccccc1 [benzylpropanoate] |
| 90 | Cc1ccc(I)cc1 [4-iodotoluene] |
| 68 | Cc1ccc(C)c(C)c1C [1,2,3,4-tetramethylbenzene] |
| 49 | CC(C)CC(=O)CC(C)C [diisobutylketone] |
| 47 | C=CCCCCO [5-hexen-1-ol] |
| -1 | COC1CCCC1 [cyclopentylmethylether] |

| flash point [°C] | SMILES |
| --- | --- |
| 40 | CC(C)(C)C1CCCCC1 [tert-butylcyclohexane] |
| 24 | CCCCCCC(C)C [2-methyloctane] |
| 58 | CCC(C)CCO (stereo not given) [3-methyl-1-pentanol] |
| 21 | CCC(CC)(CC)CC [3,3-diethylpentane] |
| 4 | CC(C)COC=O [isobutylformate] |
| 32 | CCCCC1CCCC1 [butylcyclopentane] |
| 15 | CCCc1ccco1 [2-propylfuran] |
| 69 | CCCC(=O)O [butanoicacid] |
| -4 | NC1CCC1 [cyclobutylamine] |
| 98 | CCCOC(=O)c1ccccc1 [propylbenzoate] |
| 2 | CCCCNC [N-methylbutylamine] |
| 55 | CCc1ccc(CC)cc1 [p-diethylbenzene] |
| -27 | C/C=C/C(C)C [trans-4-methyl-2-pentene] |
| 98 | CCCCCCCCCO [1-nonanol] |
| 46 | CCCCC(C=O)CC (stereo not given) [2-ethylhexanal] |
| -1 | CC1CC=CCC1 (stereo not given) [4-methylcyclohexene] |
| 69 | CCCCCCCCOC=O [octylformate] |
| 33 | CC(C)OCC1CO1 (stereo not given) [isopropylglycidylether] |
| 105 | CCCC(O)CO (stereo not given) [1,2-pentanediol] |
| 43 | CC(C)OCCO [2-isopropoxyethanol] |
| 92 | CCCCCCCCCC#N [decanenitrile] |
| 106 | CCCc1ccc(O)cc1 [4-propylphenol] |
| 39 | CCSSCC [diethyldisulfide] |
| 49 | CCCCCO [1-pentanol] |
| -29 | CCC(C)(C)C [2,2-dimethylbutane] |

| flash point [°C] | SMILES |
| --- | --- |
| -12 | CCC(CC)CC [3-ethylpentane] |
| 22 | C1=CC=CC=CC=C1 [1,3,5,7-cyclooctatetraene] |
| 12 | CCC(C)C(C)=O (stereo not given) [3-methyl-2-pentanone] |
| 34 | CCC(S)(CC)CC [3-ethyl-3-pentanethiol] |
| -7 | C=CCOCC=C [diallylether] |
| 34 | CC1CCC(=O)C1 (stereo not given) [3-methylcyclopentanone] |
| 20 | CCCC(=O)OCC [ethylbutanoate] |
| 21 | C1CCSCC1 [thiacyclohexane] |
| 57 | CCCCCOCCCCC [dipentylether] |
| 68 | OCCS [2-mercaptoethanol] |
| 95 | SCCCCCS [1,5-pentanedithiol] |
| 99 | CCCCCCCC(O)CC (stereo not given) [3-decanol] |
| 18 | CCCC#CCCC [4-octyne] |
| 38 | COCCO [2-methoxyethanol] |
| 2 | CCC(N)CC [3-pentanamine] |
| 10 | CCCOC(C)=O [propylacetate] |
| 54 | Cc1cc(C)nc(C)c1 [2,4,6-trimethylpyridine] |
| 24 | CCCCCC(C)(C)C [2,2-dimethylheptane] |
| 47 | Cc1ccnc(C)c1 [2,4-dimethylpyridine] |
| 9 | CC/C=C/CCCC [trans-3-octene] |
| 45 | CCCCC(=O)CCC [4-octanone] |
| 16 | CCCC1CCCC1 [propylcyclopentane] |
| 76 | CC(=O)CC(=O)OC(C)(C)C [tert-butylacetoacetate] |
| 85 | CCc1cccc(N)c1 [3-ethylaniline] |
| 99 | CCCCCCCCCCS [1-decanethiol] |

| flash point [°C] | SMILES |
| --- | --- |
| -36 | CCN(C)C [N-ethyldimethylamine] |
| 38 | CC1=CC2C(CC1)C2(C)C (stereo not given) [2-carene] |
| 6 | C[C@H]1CC[C@@H](C)CC1 [cis-1,4-dimethylcyclohexane] |
| 16 | CCC(C)OC(C)=O (stereo not given) [sec-butylacetate] |
| 64 | CC(C)(C)C1CCC(=O)C1 (stereo not given) [3-tert-butylcyclopentanone] |
| 52 | COc1cccc(C)c1 [3-methylanisole] |
| 43 | C1CCCCCCCC1 [cyclononane] |
| 63 | OC1CCCCC1 [cyclohexanol] |
| 15 | CCC(C)(CC)C(C)C [3-ethyl-2,3-dimethylpentane] |
| 13 | CCOC(=O)C(C)C [ethyl2-methylpropanoate] |
| 12 | Cc1ccc(F)cc1 [4-fluorotoluene] |
| 29 | C=CCSCCC [allylpropylsulfide] |
| 105 | CCCCC(C)C(=O)O (stereo not given) [2-methylhexanoicacid] |
| 27 | CC(C)(C)SC(C)(C)C [di-tert-butylsulfide] |
| 41 | CCCCCC(C)(C)CC [3,3-dimethyloctane] |
| 5 | CCCC(C)CCC [4-methylheptane] |
| 117 | CCCCCCCCCc1ccccc1 [nonylbenzene] |
| 38 | C=CCCCCCCCC [1-decene] |
| -25 | NC1CC1 [cyclopropylamine] |
| 70 | CCOC(=O)CC(C)=O [ethylacetoacetate] |
| -10 | C=C(CC)CCC [2-ethyl-1-pentene] |
| 15 | ClC1CCCC1 [chlorocyclopentane] |
| -15 | Fc1ccccc1 [fluorobenzene] |
| 66 | CCCCCc1ccccc1 [pentylbenzene] |
| 59 | CCCCCCO [1-hexanol] |

| SMILES | flash point [°C] |
| --- | --- |
| COCCOC [1,2-dimethoxyethane] | -2 |
| CCC(C)Cl (stereo not given) [2-chlorobutane] | -15 |
| CCC[N+](=O)[O-] [1-nitropropane] | 34 |
| CC1CO1 (stereo not given) [propyleneoxide] | -37 |
| Clc1ccccc1 [chlorobenzene] | 28 |
| CC(=O)CCC(C)=O [2,5-hexanedione] | 78 |
| O=Cc1ccccc1 [benzaldehyde] | 62 |
| C=CCN [allylamine] | -28 |
| Cc1ccccc1C [o-xylene] | 30 |
| CCCCOC(C)=O [butylacetate] | 25 |
| OCc1ccco1 [furfurylalcohol] | 75 |
| CCc1ccccc1C [o-ethyltoluene] | 39 |
| Clc1ccccc1Cl [1,2-dichlorobenzene] | 68 |
| CCOCCOC(C)=O [2-ethoxyethylacetate] | 51 |
| CCBr [bromoethane] | -20 |
| C1CC[C@H]2CCCC[C@H]2C1 [cis-decalin] | 57 |
| CCCC#N [butyronitrile] | 18 |
| CCC(Cl)CCl (stereo not given) [1,2-dichlorobutane] | 27 |

Remark: another data set of the same source

| SMILES | flash point [°C] |
| --- | --- |
| O=C=Nc1ccccc1 [phenyl isocyanate] | 51 |
| Cc1cccc(I)c1 [1-iodo-3-methylbenzene] | 82 |
| CCCCCC(=O)CC [3-octanone] | 53 |
| SC1CCCCC1 [cyclohexanethiol] | 43 |
| CC(C)(C)ON=O [t-butyl nitrite] | -23 |
| Cc1ccncc1 [4-methylpyridine] | 37 |
| c1ccc2c(c1)CCCC2 [1,2,3,4-tetrahydronaphthalene] | 77 |
| CCCOC(C)=O [n-propyl acetate] | 10 |

Source: a flash point compilation (Sun et al. 2020)
